Tests used:
[1] = target: human STING (Homo sapiens, UniProt Q86WV6); settings: cited from earlier work
[2] = target: T1, STING (Homo sapiens, UniProt Q86WV6, G230A/H232R/R293Q/R71H); experiment: Interferon production in THP-1 cells under basal conditions (no external stimulation); assay type: cell-based; settings: for inhibition at 32 µM / Activity (inhibition under basal conditions): 32 μM compound, no external stimulation, THP-1 cells; for Comparative antagonistic effect among UT017, UT018, UT019, UT0122 / Relative induction of interferon production under basal conditions: THP-1 cell lines, basal conditions; for Relative induction of interferon production under basal conditions: increasing concentrations
T1 construct: host or cells: THP-1 / THP1-Dual / THP1-Lucia ISG cells
Excerpt: (§1) Methods of measuring STING activity and by extension, the activity of the compounds discussed herein, are known in the art. As an example, the STING pathway activity may be evaluated using reporter cell lines where a reporter gene (i.e., luciferase, GFP) is expressed under direct or indirect control of interferon response elements. For example, in an exemplary embodiment, the STING pathway can be measured using THP1-Dual™ cells (InvivoGen) which express the Lucia gene (a secreted luciferase reporter gene) under the control of an ISG54 minimal promoter in conjunction with five IFN-stimulated response elements. The STING pathway, when activated, stimulates interferon release which, in this model, will increase luciferase expression in a detectable manner. When inhibited, interferon release will be decreased, reducing luciferase expression in a detectable manner. The compounds can optionally be tested in the presence of external stimulation (i.e., using cGAMP, a natural agonist of STING, or MSA-2).
(§2) Compounds UT017, UT018, UT019 and UT0122 were tested for their ability to interfere with STING signaling. Interferon production in the presence of increasing concentrations of UT017, UT018, UT019 or UT0122 were measured in THP-1 cell lines under basal conditions. […] Compound UT0122 was further tested in THP1-Lucia™ ISG cells for interferon production at varying concentration, in the presence of an increasing dose of a STING agonist cGAMP.
The STING pathway activity was evaluated in THP1-Dual™ cells (Invivogen). 1.5×10^5 THP1-Dual™ cells were seeded in 96-well plates and treated with the test compound followed by cGAMP (100 uM) or MSA-2 (10 uM, Science 2020, 369, eaba6098) 2 hours later. After incubating at 37° C. for 16 hours, the luciferase activity was measured by QUANTI-Luc™ (Invivogen).

[3] = target: T1, STING; experiment: cGAMP dose-response IFN induction in the presence of increasing compound concentrations; assay type: cell-based; settings: for cGAMP induced IFN induction in the presence of increasing concentrations of compound: FIGS. 16A-16D
Experimental: Compounds UT009, UT019, UT073 and UT122 were tested for their ability to interfere with cGAMP induced STING signaling. FIGS. 16A-16D show dose response plots of cGAMP induced IFN induction in the presence of increasing concentrations of each compound.
as §2

[4] = target: T1, STING; experiment: STING pathway activity in THP1-Dual/THP-1 cells upon cGAMP or MSA-2 stimulation (luciferase/interferon readout); assay type: cell-based; settings: THP-1 cells; for inhibition at 10 µM: 10 μM compound, cGAMP (100 μM) or MSA-2 (10 μM) stimulation
Excerpt: as §1
The STING pathway activity was evaluated in THP1-Dual™ cells (Invivogen). […] After incubating at 37° C. for 16 hours, the luciferase activity was measured by QUANTI-Luc™ (Invivogen).

T1 sequence (Q86WV6 whole entry R71H/G230A/H232R/R293Q): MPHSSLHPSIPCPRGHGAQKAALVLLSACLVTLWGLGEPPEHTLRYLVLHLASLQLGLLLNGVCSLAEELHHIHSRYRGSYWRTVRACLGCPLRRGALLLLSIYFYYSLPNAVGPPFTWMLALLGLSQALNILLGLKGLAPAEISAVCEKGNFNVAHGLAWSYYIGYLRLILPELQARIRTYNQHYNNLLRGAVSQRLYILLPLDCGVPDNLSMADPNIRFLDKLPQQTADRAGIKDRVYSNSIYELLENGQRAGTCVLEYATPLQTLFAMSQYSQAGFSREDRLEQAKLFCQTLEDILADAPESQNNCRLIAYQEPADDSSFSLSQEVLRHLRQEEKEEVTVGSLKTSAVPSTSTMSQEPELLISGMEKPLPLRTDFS
Sequence of human STING (Q86WV6 whole entry H232R): as the sequence (Q86WV6 whole entry R71H/G230A/H232R/R293Q) above, with H71R, A230G, Q293R counted along it

**Q.** For `Cc1ccc2c(=O)c3cccc(CC(=O)O)c3oc2c1C` [DMXAA, 5,6-dimethylxanthenone-4-acetic acid], which “Activation of human STING” value [1] is on record?
**A.** does not activate human STING

**Q.** With `CC1(C)C(=O)N(Cc2c(F)cccc2Cl)c2cc(CNS(=O)(=O)c3c(F)cc(F)cc3F)ccc21` [UT019, N-((1-(2-chloro-6-fluorobenzyl)-3,3-dimethyl-2-oxoindolin-6-yl)methyl)-2,4,6-trifluorobenzenesulfonamide] as the compound, how does the inhibition at 32 µM [2] read?
**A.** > 50%

**Q.** What about the “Comparative antagonistic effect among UT017, UT018, UT019, UT0122” value [2] of the same compound?
**A.** highest antagonistic effect

**Q.** And the “Relative induction of interferon production under basal conditions” value [2]?
**A.** suppressed at the highest concentration tested

**Q.** And the “cGAMP induced IFN induction in the presence of increasing concentrations of compound” value [3]?
**A.** dose-dependent suppression of interferon production

**Q.** For `C[C@@H](NC(=O)c1ccc2c(c1)N(Cc1c(F)cccc1Cl)C(=O)C2(C)C)c1c(F)cc(F)cc1F` [UT065, (R)-1-(2-chloro-6-fluorobenzyl)-3,3-dimethyl-2-oxo-N-(1-(2,4,6-trifluorophenyl)ethyl) indoline-6-carboxamide], which “Activity (inhibition under basal conditions)” value [2] is on record?
**A.** D*

**Q.** For `C[C@H](NC(=O)c1ccc2c(c1)N(Cc1c(F)cccc1Cl)C(=O)C2(C)C)c1c(F)cc(F)cc1F` [UT066, (S)-1-(2-chloro-6-fluorobenzyl)-3,3-dimethyl-2-oxo-N-(1-(2,4,6-trifluorophenyl)ethyl) indoline-6-carboxamide], which “Activity (inhibition under basal conditions)” value [2] is on record?
**A.** D*

**Q.** With `CC1(C)C(=O)N(Cc2c(Cl)cccc2OCc2cc(F)cc(F)c2)c2cc(C(F)(F)F)ccc21` [UT071a, 1-(2-chloro-6-((3,5-difluorobenzyl)oxy)benzyl)-3,3-dimethyl-6-(trifluoromethyl)indolin-2-one] as the compound, how does the inhibition at 32 µM [2] read?
**A.** < 50%

**Q.** For `CC1(C)C(=O)N(Cc2c(Cl)cccc2OCc2cc(F)cc(F)c2)c2cc(F)ccc21` [UT072, 1-(2-chloro-6-((3,5-difluorobenzyl)oxy)benzyl)-6-fluoro-3,3-dimethylindolin-2-one], which inhibition at 32 µM [2] is on record?
**A.** < 50%

**Q.** With `CC1(C)C(=O)N(Cc2c(Cl)cccc2Oc2cc(F)cc(F)c2)c2cc(C(F)(F)F)ccc21` [UT073, 1-(2-chloro-6-(3,5-difluorophenoxy)benzyl)-3,3-dimethyl-6-(trifluoromethyl) indolin-2-one] as the compound, how does the “cGAMP induced IFN induction in the presence of increasing concentrations of compound” value [3] read?
**A.** dose-dependent suppression of interferon production

**Q.** And the inhibition at 10 µM [4]?
**A.** < 50%

**Q.** For `CC1(C)C(=O)N(Cc2c(Cl)cccc2Oc2cc(F)cc(F)c2)c2cc(F)ccc21` [UT074, 1-(2-chloro-6-(3,5-difluorophenoxy)benzyl)-6-fluoro-3,3-dimethylindolin-2-one], which inhibition at 32 µM [2] is on record?
**A.** < 50%

**Q.** With `CC1(C)C(=O)N(Cc2c(F)cc(F)cc2F)c2cc(C(=O)NCc3cc4ccccc4o3)ccc21` [UT114, N-(benzofuran-2-ylmethyl)-3,3-dimethyl-2-oxo-1-(2,4,6-trifluorobenzyl)indoline-6-carboxamide] as the compound, how does the “Activity (inhibition under basal conditions)” value [2] read?
**A.** D*

**Q.** For `CC1(C)C(=O)N(Cc2c(F)cccc2F)c2cc(-c3ncc(-c4c(F)cc(F)cc4F)o3)ccc21` [UT115, 1-(2,6-difluorobenzyl)-3,3-dimethyl-6-(5-(2,4,6-trifluorophenyl)oxazol-2-yl)indolin-2-one], which “Activity (inhibition under basal conditions)” value [2] is on record?
**A.** D*

**Q.** For `CC1(C)C(=O)N(Cc2c(F)cccc2F)c2cc(-c3coc(-c4cccc(F)c4)n3)ccc21` [UT117, 1-(2,6-difluorobenzyl)-6-(2-(3-fluorophenyl)oxazol-4-yl)-3,3-dimethylindolin-2-one], which “Activity (inhibition under basal conditions)” value [2] is on record?
**A.** D*

**Q.** Which “Activity (inhibition under basal conditions)” value [2] does the source give for `CC1(C)C(=O)N(Cc2c(F)cccc2F)c2cc(-c3cn(-c4ccccc4)nn3)ccc21` [UT118, 1-(2,6-difluorobenzyl)-3,3-dimethyl-6-(1-phenyl-1H-1,2,3-triazol-4-yl)indolin-2-one] here?
**A.** D*

**Q.** With `CC1(C)C(=O)N(Cc2c(F)cc(F)cc2F)c2cc(C(=O)NCc3cc4cc(F)c(F)cc4o3)ccc21` [UT120, N-((5,6-difluorobenzofuran-2-yl)methyl)-3,3-dimethyl-2-oxo-1-(2,4,6-trifluorobenzyl) indoline-6-carboxamide] as the compound, how does the “Activity (inhibition under basal conditions)” value [2] read?
**A.** D*

**Q.** For `Cc1nn(C)c(CN2C(=O)C(C)(C)c3ccc(C(=O)NCc4cc5ccccc5s4)cc32)c1Br` [UT121, N-(benzo[b]thiophen-2-ylmethyl)-1-((4-bromo-1,3-dimethyl-1H-pyrazol-5-yl)methyl)-3,3-dimethyl-2-oxoindoline-6-carboxamide], which “Activity (inhibition under basal conditions)” value [2] is on record?
**A.** D*

**Q.** With `Cc1nn(C)c(CN2C(=O)C(C)(C)c3ccc(C(=O)NCc4cc5ccccc5[nH]4)cc32)c1Br` [UT122, N-((1H-indol-2-yl)methyl)-1-((4-bromo-1,3-dimethyl-1H-pyrazol-5-yl)methyl)-3,3-dimethyl-2-oxoindoline-6-carboxamide] as the compound, how does the “Comparative antagonistic effect among UT017, UT018, UT019, UT0122” value [2] read?
**A.** highest antagonistic effect

**Q.** What about the “Relative induction of interferon production under basal conditions” value [2] of the same compound?
**A.** suppressed at the highest concentration tested

**Q.** What about the “cGAMP induced IFN induction in the presence of increasing concentrations of compound” value [3] of the same compound?
**A.** dose-dependent suppression of interferon production

**Q.** And the “Induction of interferon by cGAMP” value ([3]; THP1-Lucia ISG cells, varying compound concentration, increasing dose of cGAMP)?
**A.** suppressed in a dose-dependent manner

**Q.** What about the inhibition at 10 µM [4] of the same compound?
**A.** > 50%

**Q.** What about the “Induction of interferon production in the presence of MSA2” value ([4]; 10 μM MSA2, increasing concentrations of compound) of the same compound?
**A.** antagonistic activity with an inhibition of interferon production in a dose dependent manner

**Q.** And the “Interferon production in the presence of cGAMP” value ([4]; 100 μM cGAMP, increasing concentrations of compound)?
**A.** antagonistic activity with an inhibition of interferon production in a dose dependent manner

**Q.** With `CC1(C)C(=O)N(Cc2c(Oc3cc(F)cc(F)c3)cccc2C(F)(F)F)c2ccc(C(F)(F)F)cc21` [UT202, 1-(2-(3,5-difluorophenoxy)-6-(trifluoromethyl)benzyl)-3,3-dimethyl-5-(trifluoromethyl)indolin-2-one] as the compound, how does the inhibition at 10 µM [4] read?
**A.** < 50%

**Q.** With `CC1(C)C(=O)N(Cc2c(Oc3cc(F)cc(F)c3)cccc2C(F)(F)F)c2cc3c(cc21)OCO3` [UT203, 5-(2-(3,5-difluorophenoxy)-6-(trifluoromethyl)benzyl)-7,7-dimethyl-5,7-dihydro-6H-[1,3]dioxolo[4,5-f]indol-6-one] as the compound, how does the inhibition at 10 µM [4] read?
**A.** > 50%
